No end group written: not given here.
Tested on: SK-N-SH human neuroblastoma cells
Test: MTT toxicity assay
Settings: four day MTT cytotoxicity assay

In the case of GKLVFFA-NH2 [GKLVFFA], the “concentration at which toxicity was exhibited in MTT assay” value is reported as 100 µM.

Reference: patent publication US9364449B2, “Peptoid and synthetic oligomers, pharmaceutical compositions and methods of using same” (New York University, priority 2011, dated 2016)
